Where two headings read alike, the source gives them in different places.
Tests used:
[1] = target: T1, Brain AChE (acetylcholinesterase, rat striatum) (Rattus norvegicus, UniProt P37136); assay: biochemical; settings: rat striatum homogenate; 5 mM acetylthiocholine; pH 7.2; 10 min preincubation at 37° C.; read-out: Inhibitory Concentration, Brain AChE
T1 construct: corpora striata dissected free, weighed and homogenized in 19 volumes; from tissue; host or cells: corpora striata of male Wistar rats, crude homogenate
T1 sequence (P37136 32-614): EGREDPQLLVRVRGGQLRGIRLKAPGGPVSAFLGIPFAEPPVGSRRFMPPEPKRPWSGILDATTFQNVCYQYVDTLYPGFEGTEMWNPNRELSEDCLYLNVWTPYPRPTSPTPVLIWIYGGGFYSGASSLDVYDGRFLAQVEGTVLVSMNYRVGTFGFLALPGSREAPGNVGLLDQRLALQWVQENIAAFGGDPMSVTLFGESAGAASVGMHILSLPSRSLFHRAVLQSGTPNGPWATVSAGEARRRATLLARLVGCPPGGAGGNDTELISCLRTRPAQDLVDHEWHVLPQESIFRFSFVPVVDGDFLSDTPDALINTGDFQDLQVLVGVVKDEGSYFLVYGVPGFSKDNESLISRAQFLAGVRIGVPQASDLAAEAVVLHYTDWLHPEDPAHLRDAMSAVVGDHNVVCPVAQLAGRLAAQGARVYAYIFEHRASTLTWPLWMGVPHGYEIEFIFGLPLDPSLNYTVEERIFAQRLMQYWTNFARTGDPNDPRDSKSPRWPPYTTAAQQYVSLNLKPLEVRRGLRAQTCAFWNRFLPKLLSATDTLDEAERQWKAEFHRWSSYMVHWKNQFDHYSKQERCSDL
Excerpt: Cholinesterases are found throughout the body, both in the brain and in serum. However, only brain acetylcholinesterase (AChE) distribution is correlated with central cholinergic innervation. […] We have determined in vitro inhibition of acetylcholinesterase activity in rat striatum according to the method described below.
In Vitro Inhibition of Acetylcholinesterase Activity in Rat Striatum
The method described below was used in this invention for assaying anticholinesterase activity. This is a modification of the method of Ellman et al., Biochem. Pharmacol. 7, 88 (1961).
1. 0.05M Phosphate buffer, pH 7.2
(a) 6.85 g NaH2 PO4 .cndot.H2 O/100 ml distilled H2 O
(c) add (a) to (b) until pH reaches 7.2
4. A 2 mM stock solution of the test drug is made up in a suitable solvent and q.s. to volume with 0.5 mM DTNB (reagent 3). Drugs are serially diluted (1:10) such that the final concentration (in cuvette) is 10^-4 M and screened for activity. If active, IC50 values are determined from the inhibitory activity of subsequent concentrations.
Enzyme activity is measured with the Beckman DU-50 spectrophotometer. This method can be used for IC50 determinations and for measuring kinetic constants.
This program also calculates the rate of absorbance change for each cuvette.
Substrate concentration is 10 mM diluted 1:2 in assay yielding final concentration of 5 mM.

[2] = system: Scopolamine Induced Memory Deficit; format: in vivo, mice
Procedure: In this assay mice are tested for their ability to remember an unpleasant stimulus for a period of 24 hours. A mouse is placed in a chamber that contains a dark compartment; a strong incandescent light drives it to the dark compartment, where an electric shock is administered through metal plates on the floor. The animal is removed from the testing apparatus and tested again, 24 hours later, for the ability to remember the electric shock.
If scopolamine, an anticholinergic that is known to cause memory impairment, is administered before an animal's initial exposure to the test chamber, the animal re-enters the dark compartment shortly after being placed in the test chamber 24 hours later. This effect of scopolamine is blocked by an active test compound, resulting in a greater interval before-re-entry into the dark compartment.
The results for an active compound are expressed as the percent of a group of animals in which the effect of scopolamine is blocked, as manifested by an increased interval between being placed in the test chamber and re-entering the dark compartment.
Results of this assay for some of the compounds of this invention and those for tacrine and pilocarpine (reference compounds) are presented in Table 2.

norepinephrine uptake = assay: 3H-Norepinephrine Uptake in Rat Whole Brain Synaptosomes; format: biochemical; settings: 50 nM 3H-NE, 37° C., 5 minutes, read-out: IC50 (3H-norepinephrine uptake inhibition)
Procedure: ^3 H-Norepinephrine Uptake in Rat Whole Brain Synaptosomes
This assay is used as a biochemical screen for compounds that enhance adrenergic mechanism by blocking norepinephrine uptake.
A. Animals: Male CR Wistar rats (100-125 g).
1. Krebs-Henseleit Bicarbonate Buffer, pH 7.4 (KHBB). Make a 1 liter batch, containing the following salts.
2. 0.32M Sucrose: 21.9 g of sucrose, Q.S. to 200 ml.
3. A 0.1 mM stock solution of L(-)-Norepinephrine bitartrate is made up in 0.01N HCl. This is used to dilute the specific activity of radiolabeled NE.
4. Levo-[Ring-2,5,6-^3 H]-Norepinephrine (40-50 Ci/mmol) is obtained from New England Nuclear. The final desired concentration of ^3 H-NE in the assay is 50 nM. The dilution factor is 0.8; therefore the KHBB is made up to contain 62.5 nM [^3 H]-NE. Add to 100 ml of KHBB:
5. For most assays, a 1 mM stock solution of the test compound is made up in suitable solvent and serially diluted such that the final concentration in the assay ranges from 2×10^-8 to 2×10^-5 M. Seven concentrations are used for each assay. Higher or lower concentrations may be used depending on the potency of the test compound.
Male Wistar rats are decapitated and brains rapidly removed. Either whole brain minus cerebella or hypothalamus is weighed and homogenized in 9 volumes of ice-cold 0.32M sucrose using a Potter-Elvejhem homogenizer. Homogenization should be done with 4-5 up and down strokes at medium speeds to minimize synaptosome lysis. The homogenate is centrifuged at 1000 g for 10 min at 0°-4° C. The supernatant (S1) is decanted and is used for uptake experiments.
800 μl: KHBB containing [^3 H]-NE
20 μl: Vehicle or appropriate drug concentration
200 μl: Tissue suspension
Tubes are incubated at 37° C. under a 95% O2 /5% CO2 atmosphere for 5 minutes. For each assay, 3 tubes are incubated with 20 μl of vehicle at 0° C. in an ice bath. After incubation all tubes are immediately centrifuged at 4000 g for 10 minutes. […] The tubes are vigorously vortexed, decanted into scintillation vials, and counted in 10 ml of Liquiscint scintillation counting cocktail. […]

In the case of `CNC(=O)Oc1ccc2c(ccn2N2CCOc3cnccc32)c1` [1-(Pyrido-[3,4-b]-1,4-oxazin-4-yl)-1H-indol'-5-yl methylcarbamate], the IC50 [1] is reported as 0.054 µM, the “% of Animals with Scopolamine Induced Memory Deficit Reversal” value (shortened to “% of Animals”) ([2]; mice, 0.01 mg/kg of body weight, s.c., retest 24 hours) is reported as 27% and the “% of Animals” value ([2]; mice, 0.03 mg/kg of body weight, s.c., retest 24 hours) is reported as 20%. For the same molecule, the “% of Animals” value ([2]; mice, 0.10 mg/kg of body weight, s.c., retest 24 hours) was 33%.

`CNCCC=C1c2ccccc2CCc2ccccc21` [Nortriptyline] showed an IC50 (norepinephrine uptake) of 4 µM.

In the case of `CC[C@@H]1C(=O)OC[C@@H]1Cc1cncn1C` [Pilocarpine, reference compound], the “% of Animals” value ([2]; mice, 5.0 mg/kg of body weight, s.c., retest 24 hours) is reported as 13%.

In the case of `CN(C)CCC=C1c2ccccc2CCc2ccccc21` [Amitriptyline], the IC50 (norepinephrine uptake) is reported as 7.7 µM.

With `Nc1c2c(nc3ccccc13)CCCC2` [Tacrine, reference compound] the “% of Animals” value ([2]; mouse, in vivo, sc, 0.63 mg/kg) was 13%.

In the case of `Cc1cn(N2CCOc3cnccc32)c2ccccc12` [4-(3-Methyl-1H-indol-1-yl)-pyrido[3,4-b]-1,4-oxazine], the IC50 (norepinephrine uptake) is reported as 6 µM.

— US5214038A, “1-(pyrido[3,4-b]-1,4-oxazinyl-4-yl)-1H-indoles and intermediates for the preparation thereof” (priority 1991, dated 1993)
